The source of these data is US9084806B2, “Hypoxia-responsive nanoparticle for therapy and imaging of hypoxia-involving diseases” (RESEARCH & BUSINESS FOUNDATION SUNGKYUNKWAN UNIVERSITY, priority 2012, dated 2015).

The conditions of series [1]: cited from earlier work.
The subject of the next series is SCC7 cells. The series is described as follows: In vitro cytotoxicity, MTT assay. Type of series: cell-based. The following applies: 24 h, various concentrations. On the procedure:
To evaluate in vitro cytotoxicity of HR-NPs, they were exposed to the SCC7 cells for 24 h at 37° C., after which the cell viability was measured using the MTT assay (FIG. 6a).
SCC7 (squamous carcinoma) cell lines, obtained from the American Type Culture Collection (Rockville, Md., USA), were cultured in RPMI 1640 medium (Gibco, Grand Island, N.Y., USA) containing 10% (v/v) fetal bovine serum and 1% (w/v) penicillin-streptomycin at 37° C. in a humidified 5% CO2-95% air atmosphere. The cells were seeded at a density of 1 104 cells/well in 96-well flat-bottomed plates. After one day of growth, the cells were washed twice with a PBS (pH 7.4) and incubated for 24 h with various concentrations of free DOX or DOX-HR-NPs (HR-NP8 and HR-NP11) under the hypoxic or normoxic condition. The cells were then washed twice with a PBS (pH 7.4) and the fresh culture medium was added. Twenty microliters of 3-(4,5-dimethylthiazol-2-yl)-2,5-diphenyltetrazolium bromide solution (5 mg/ml in PBS) were added to each well, and the cells were incubated for an additional 4 h at 37° C. Subsequently, the medium was removed, and the cells were dissolved in DMSO. The absorbance at 570 nm was measured using a microplate reader (BioTek, Seoul, Korea).
(In general: Tetrazolium assays rely on reduction of a dye to a coloured formazan, in cell work by metabolically active cells.)

In the next series the test system is SCC7 cancer xenografts. Put plainly: In vivo antitumor efficacy. Also noted: species or system mice. Particulars: DOX dose 5 mg/kg, once every three days. On the procedure: To evaluate the anti-tumor efficacy of HR-NPs, SCC7 tumor bearing mice were prepared, as previously described. Mice were divided into three groups: (i) normal saline (ii) free DOX at 5 mg/kg, and (iii) DOX-HR-NP11 at 5 mg DOX/kg. When tumors reached 8 mm in diameter, each sample was injected once every three days. Tumor volumes were calculated as a×b^2/2, were a was the largest and b the smallest diameter. The statistical significance of differences (p<0.05) between groups tested was determined using one-way ANOVA test.

SMILES strings stand for the structures. “Also recorded” adds a separate entry of the source.

Turning to `Nc1ncc[nH]1` [2-aminoimidazole], the solubility in water entry in series [1] is recorded as “readily dissolving in water; also recorded: highly water-soluble”.

As for `O=[N+]([O-])c1ncc[nH]1` [2-nitroimidazole], in series [1], the solubility in water result is reported as “poorly soluble in water”.

In the case of `COc1cccc2c1C(=O)c1c(O)c3c(c(O)c1C2=O)C[C@@](O)(C(=O)CO)C[C@@H]3O[C@H]1C[C@H](N)[C@H](O)[C@H](C)O1` [free DOX, doxorubicin], the “cytotoxicity in the hypoxic condition compared with the normoxic condition” value with SCC7 cells is “comparable”. Moreover, the “change in tumor volume” value in the series with SCC7 cancer xenografts was “considerable increase”.
